# Read-outs that look alike come from different tables or passages of the source.
# Details: 20 mcg/mL, tromethamine 10 mg/mL, normal saline
# Description: Separate samples containing levothyroxine sodium at a concentration of 20 mcg/mL, tromethamine at a concentration of 10 mg/mL in normal saline (0.9% NaCl in water) were adjusted to various pH levels. One sample additionally contained hydroxypropyl (HP) β-cyclodextrin at a concentration of 10 mg/mL. 5 mL of each sample was filled into 10 cc amber tubing vials, and the vials were stoppered with 20 mm stoppers under nitrogen. The samples were stored at temperatures of 25° C., 40° C. and 55° C. The samples stored at 55° C. were analyzed by HPLC at 1 and 4 weeks (W) of storage. The samples stored at 40° C. were analyzed by HPLC at 4 W and 3 months (M) of storage. The samples stored at 25° C. were analyzed by HPLC at 3M of storage.
# The HPLC conditions were as follows: • Column: Waters […]™ C8 (5 μm, 4.6×150 mm) HPLC column • Mobile Phase A: Sodium heptanesulfonate/Acetonitrile/Water/Methanol/H3PO4 (4.023 g/800 mL/1600 mL/1600 mL/4 mL) • Mobile Phase B: Sodium heptanesulfonate/Acetonitrile/Water/Methanol/H3PO4 (2.013 g/1000 mL/100 mL/900 mL/2 mL) • Diluent: 0.01 N NaOH • Column temperature: 25° C. • Flow rate: 1.5 mL/min • Injection volume: 40-200 μL • Autosampler temperature: 5° C. • Detection: UV at 225 nm • Separation mode: Gradient Gradient Program: […]
# The results for liothyronine, largest unknown impurity, and total impurities as determined by peak area percent are set forth in Table 1.
# [1] = 55° C., 1 W, pH 9, HP-β-cyclodextrin 10 mg/mL
smiles,measurement,setting,value
"N[C@@H](Cc1cc(I)c(Oc2cc(I)c(O)c(I)c2)c(I)c1)C(=O)[O-].[Na+] [Levothyroxine Na, 4-(4-hydroxy-3,5-diiodophenoxy)-3,5-diiodo-L-phenylalanine sodium]",% Liothyronine,"25° C., 3 M, pH 9.5",0.6%
same,% largest unknown impurity,"25° C., 3 M, pH 9.5",0.46%
same,% total impurities,"25° C., 3 M, pH 9.5",1.51%
same,% Liothyronine,"25° C., 3 M, pH 10",0.35%
same,% largest unknown impurity,"25° C., 3 M, pH 10",0.11%
same,% total impurities,"25° C., 3 M, pH 10",0.71%
same,% largest unknown impurity,"40° C., 3 M, pH 9.5",0.48%
same,% total impurities,"40° C., 3 M, pH 9.5",2.66%
same,% largest unknown impurity,"40° C., 3 M, pH 10",0.16%
same,% total impurities,"40° C., 3 M, pH 10",1.35%
same,% Liothyronine,"40° C., 4 W, pH 9.5",0.9%
same,% largest unknown impurity,"40° C., 4 W, pH 9.5",0.12%
same,% total impurities,"40° C., 4 W, pH 9.5",1.7%
same,% Liothyronine,"40° C., 4 W, pH 10",0.4%
same,% largest unknown impurity,"40° C., 4 W, pH 10",0.12%
same,% total impurities,"40° C., 4 W, pH 10",0.6%
same,% Liothyronine,"55° C., 1 W, pH 8",15.2%
same,% largest unknown impurity,"55° C., 1 W, pH 8",1.59%
same,% total impurities,"55° C., 1 W, pH 8",17.5%
same,% Liothyronine,[1],2.7%
same,% largest unknown impurity,[1],0.86%
same,% total impurities,[1],4.0%
same,% Liothyronine,"55° C., 1 W, pH 9",2.7%
same,% largest unknown impurity,"55° C., 1 W, pH 9",0.67%
same,% total impurities,"55° C., 1 W, pH 9",3.6%
same,% Liothyronine,"55° C., 1 W, pH 9.5",1.2%
same,% largest unknown impurity,"55° C., 1 W, pH 9.5",0.50%
same,% total impurities,"55° C., 1 W, pH 9.5",2.2%
same,% Liothyronine,"55° C., 1 W, pH 10",0.6%
same,% largest unknown impurity,"55° C., 1 W, pH 10",0.27%
same,% total impurities,"55° C., 1 W, pH 10",1.5%
same,% largest unknown impurity,"55° C., 4 W, pH 9.5",0.09%
same,% total impurities,"55° C., 4 W, pH 9.5",2.1%
same,% Liothyronine,"55° C., 4 W, pH 10",3.1%
same,% largest unknown impurity,"55° C., 4 W, pH 10",0.55%
same,% total impurities,"55° C., 4 W, pH 10",4.2%

# From US12636270B2, “Levothyroxine liquid formulations” (Fresenius Kabi USA, LLC, priority 2016, dated 2026)
